Publication PMC9814792 (Communications Chemistry, 2022)

Experiments:
[1] = parameters: method as in PMID 7895599; conditions: patients; cited from earlier work
A2780/Cis cells = test: 72 h cell viability (MTT) assay; type: cell-based, human
Procedure: (§1) Cells were seeded (3–4 ×10^3 cells/well) in 96-well plates in 100 µL and after 24 h recovery treated with 100 µL of compounds at the indicated concentrations in triplicates. After 72 h drug exposure cell viability was determined by 3-(4,5-dimethylthiazol-2-yl)-2,5-diphenyltetrazolium bromide (MTT)-vitality assay (EZ4U, Biomedica, Vienna, Austria) following the manufacturer’s recommendations, as published. Absorbance was measured at 450 nm (at 620 nm as reference) using the multimode plate reader Tecan Infinite 200 Pro (Zurich, Switzerland). Cytotoxicity was expressed as IC50 values calculated from full dose-response curves using the 4 parameter nonlinear regression model of GraphPad Prism 8 software (La Jolla, CA, USA).

A2780 cells = test: 72 h cell viability (MTT) assay; type: cell-based, human; conditions: A2780, 72 h continuous exposure; read-out: IC50 value (95% confidence interval)
Procedure: as §1

CT26 allografts = test: In vivo anticancer activity, CT26 allografts; parameters: species or system BALB/c mice; conditions: for tumor doubling time extended: CT26 allografts, equimolar doses; for tumor doubling time extended / maximal tumor growth inhibition: twice a week for two weeks; for maximal tumor growth inhibition: day 11, CT26 allografts, equimolar to 9 mg/kg oxaliplatin i.v.; for tumor volumes as compared to solvent controls: first two weeks of treatment
Procedure: (§2) Eight-to nine-week-old female BALB/c mice bred in-house (originally Janvier) were kept in pathogen-free conditions and controlled environment with 12 h light-dark cycle. CT26 cells (5 × 10^5 in 50 µL serum-free RPMI medium) were injected subcutaneously (s.c.) into the right flank of the animals. […] Tumor growth was evaluated by daily recording of tumor size by caliper measurement. […] The reasons were primarily either enhanced tumor size or ulceration. For drug distribution (digestion and ICP-MS measurement details see below), histological and GSH determination experiments, mice were treated twice during one week and sacrificed 24 h after the last drug dosing. The animal experiments were performed according to the regulations of the Ethics Committee for the Care and Use of Laboratory Animals at the Medical University Vienna (proposal number BMBWF-V/3b 2020-0.380.502).

albumin = biological target: T1, albumin (Bos taurus, UniProt P02769); test: Albumin binding in fetal calf serum by SEC-ICP-MS; type: in vitro ADME; conditions: fetal calf serum 37 °C, 100 μM
T1 construct: tissue Sigma-Aldrich; host or cells: fetal calf serum
T1 sequence (P02769 25-607): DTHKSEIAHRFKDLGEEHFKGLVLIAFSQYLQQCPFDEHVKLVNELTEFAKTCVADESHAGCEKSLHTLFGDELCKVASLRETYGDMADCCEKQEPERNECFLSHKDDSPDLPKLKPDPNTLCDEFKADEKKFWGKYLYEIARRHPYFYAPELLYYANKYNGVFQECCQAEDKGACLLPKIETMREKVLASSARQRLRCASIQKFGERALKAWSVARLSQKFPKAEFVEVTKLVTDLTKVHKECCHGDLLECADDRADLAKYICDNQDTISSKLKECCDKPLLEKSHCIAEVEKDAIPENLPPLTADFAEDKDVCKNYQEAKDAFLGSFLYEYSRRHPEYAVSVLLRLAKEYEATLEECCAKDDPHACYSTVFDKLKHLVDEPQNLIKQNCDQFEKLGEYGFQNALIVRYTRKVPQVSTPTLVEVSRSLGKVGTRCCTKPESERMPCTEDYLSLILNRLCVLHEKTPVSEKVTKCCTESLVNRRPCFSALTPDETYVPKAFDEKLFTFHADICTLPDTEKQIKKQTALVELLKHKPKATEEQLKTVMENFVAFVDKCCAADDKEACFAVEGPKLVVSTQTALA
Procedure: Fetal calf serum was purchased from Sigma-Aldrich and buffered with 150 mM phosphate buffer (pH 7.4) to guarantee a stable pH. The platinum(IV) complexes were dissolved in 150 mM phosphate buffer (pH 7.4) to 1 mM and diluted 1:10 in serum to obtain a final concentration of 100 μM. The samples were then incubated in the autosampler at 37 °C for 24 h and analyzed at 0 h, 1 h, 4 h, and 24 h. Between each sample, a pure water blank was measured. For SEC-ICP-MS measurements, an Agilent 1260 Infinity system coupled to an Agilent 7800 ICP-MS equipped with a dynamic reaction cell was used. Oxygen (purity 5.5, Messer AustriaGmbH, Gumpoldskirchen, Austria) was used as reaction gas at 30% and 0.9 L/min flow.

[2] = Tissue/organ platinum distribution in CT26 allograft mice; type: in vivo, BALB/c mice; conditions: two i.v. doses in one week, 24 h after second dosing
Procedure: (§3) Eight-to nine-week-old female BALB/c mice bred in-house (originally Janvier) were kept in pathogen-free conditions and controlled environment with 12 h light-dark cycle. CT26 cells (5 × 10^5 in 50 µL serum-free RPMI medium) were injected subcutaneously (s.c.) into the right flank of the animals. […] Tumor growth was evaluated by daily recording of tumor size by caliper measurement. […] For drug distribution (digestion and ICP-MS measurement details see below), histological and GSH determination experiments, mice were treated twice during one week and sacrificed 24 h after the last drug dosing. The animal experiments were performed according to the regulations of the Ethics Committee for the Care and Use of Laboratory Animals at the Medical University Vienna (proposal number BMBWF-V/3b 2020-0.380.502).

[3] = system: kidney, lung, liver sections; test: pH2AX DNA damage staining in healthy organs; type: in vivo, BALB/c mice; conditions: lung and kidney sections
Procedure: as §2
(§4) Formalin-fixed, paraffin-embedded tissue sections were prepared from tumors and animal organs (animal experiment details see above) and H&E stains performed by standard methods. Mouse-specific Ki-67 rabbit mAb (#12202) and mouse-specific pH2AX rabbit mAb (#9718) were purchased from Cell Signaling Technology (Beverly, MA, USA) and used following the manufacturer’s recommendations in a dilution of 1:200 (Ki-67) and 1:500 (pH2AX) for immunohistochemical staining.

[4] = Serum pharmacokinetics (platinum by ICP-MS) after single dose; type: in vivo, BALB/c mice; conditions: for serum half-life (fast), two-phase decay model / serum half-life (slow), two-phase decay model / serum half-life, one-phase decay model: serum platinum
Procedure: Blood was drawn after 5 min, 30 min, 6 h, 24 h, 72 h, 1 and 2 weeks from the facial vein as published. Serum was isolated by centrifugation at 900 g for 10 min for two times and stored at –80 °C. In addition, blood samples and tissues from the allograft experiment after the two-weeks therapy experiment were analyzed. Digestion of tissue (approx. 10–30 mg gravimetrically weighted) was performed with 2 mL of approx. 20% nitric acid and 100 µL H2O2 using an open vessel graphite digestion system (coated graphite heating plate, coated sample holder-top for 25 mL vials, perfluoroalkoxy (PFA) vials and PFA lids; Labter, ODLAB; AHF Analysentechnik AG; Germany). HNO3 (67–69%, suprapur for trace metal analysis, NORMATOM; VWR international, Austria) and conc. H2O2 suprapur (Merck, 30%) were used without further purification. Ultrapure water (18.2 MΩ cm, Milli-Q Advantage, Darmstadt, Germany) was used for all dilutions for ICP-MS measurements. Platinum and rhenium standards for ICP-MS measurements were derived from CPI International (Amsterdam, The Netherlands). The platinum content was determined using an Agilent 7800 ICP-MS instrument. The ICP-MS Agilent 7800® (Agilent Technologies, Tokyo, Japan) was equipped with an Agilent SPS 4 autosampler (Agilent Technologies, Tokyo, Japan) and a MicroMist nebulizer at a sample uptake rate of approx. 0.2 mL/min. The Agilent MassHunter® software package (Workstation Software, version C.01.04, Build 544.17, Patch 3, 2018) was used for data processing. The instrument was tuned on a daily basis to achieve maximum sensitivity. In case of the single-dose experiment, serum area-under the curve (AUC) and serum half-life (one-phase and two-phase decay models) were determined using the respective non-linear fit regression models of GraphPad Prism software.

CT26 tumor tissue = test: Tumor tissue markers (mitoses, Ki-67, pH2AX, GSH) after one week of therapy; type: in vivo, BALB/c mice; conditions: for number of mitotic tumor cells as compared to solvent controls: H&E-stained sections
Procedure: as §3, §4
(§5) GSH levels in HCT116 and HCT116/OxR cells (7.5 × 10^4 cells per well in 96-well plates, in triplicate), or in CT26 tumor tissues (25–50 mg/sample) were determined using the luminescence-based detection system GSH/GSSG-Glo^TM assay (Promega, Madison, WI) following the manufacturer’s recommendations. Quantifications are based on the comparison with a GSH standard curve delivered in the assay and normalized to the total protein content of the samples determined by the Micro BCA^TM protein assay kit (Thermo Scientific).

HaCat keratinocytes = test: 72 h cell viability (MTT) assay; type: cell-based, human
Procedure: as §1

BEC endothelial cells = test: 72 h cell viability (MTT) assay; type: cell-based, human
Procedure: as §1

HCT116 cells = test: 72 h cell viability (MTT) assay; type: cell-based, human; conditions: HCT116, 72 h continuous exposure; read-out: IC50 value (95% confidence interval)
Procedure: as §1

[5] = system: HCT116 and HCT116/OxR cells; test: Cellular GSH content (GSH/GSSG-Glo); type: cell-based, human; conditions: 24 h exposure, single agent
Procedure: as §5

[6] = system: HCT116 and HCT116/OxR cells; test: In vitro platinum cell uptake by ICP-MS; type: cell-based, human; conditions: 3 h exposure
Procedure: Cells were seeded at 1.5 ×10^5 cells/well in six-well plates in 1.5 mL and after 24 h recovery treated with 500 µL of compounds at the indicated concentrations in triplicates. After 3 h drug exposure, cells were detached, washed twice with phosphate-buffered saline (PBS), dried at RT for 15 min and lysed in 100 µL HNO3 (69%, Rotipuran Supra, Carl Roth, Karlsruhe, Germany) for 1 h at RT. The lysate was added to fresh tubes containing 200 µL ddH2O. ICP-MS measurements were performed with an Agilent 8800 ICP-MS/MS instrument (Agilent Technologies, Tokyo, Japan). The sample introduction system consisted of a MicroMist nebulizer (200 μL min^−1 nominal sample uptake) and a quartz double-pass spray chamber. The instrument was tuned on a daily basis in order to achieve maximum sensitivity, low oxide formation, and low doubly charged ratios. Platinum was monitored in no gas mode with an integration time of 0.3 s. The flow injection measurements were performed with a bioinert HPLC 1260 (Agilent Technologies, Waldbronn, Germany), which was directly connected to the nebulizer of the ICP-MS/MS instrument with a PEEK tubing. The following chromatographic conditions were used: injection volume: 10 µL; flow rate: 0.30 mL min^-1; isocratic elution; CH3COONH4 (50 mM, pH = 6.8) aqueous solution was employed as mobile phase. The data were recorded and evaluated with the Agilent MassHunter Chromatography software package, MassHunter 4.6., 2019.

Tolerability in mice = type: in vivo, BALB/c mice
Procedure: as §2

HCT116/OxR cells = test: 72 h cell viability (MTT) assay; type: cell-based, human; conditions: HCT116/OxR, 72 h continuous exposure; read-out: IC50 value (95% confidence interval)
Procedure: Absorbance was measured at 450 nm (at 620 nm as reference) using the multimode plate reader Tecan Infinite 200 Pro (Zurich, Switzerland). Cytotoxicity was expressed as IC50 values calculated from full dose-response curves using the 4 parameter nonlinear regression model of GraphPad Prism 8 software (La Jolla, CA, USA).

## CCCCS(=N)(=O)CC[C@H](N)C(=O)O (stereo partly drawn) [BSO, L-Buthionine-S,R-sulfoximine]
[1]
  plasma half-life: < 2 h

## N.N.[Cl][Pt][Cl] [cisplatin, reference compound]
A2780/Cis cells; A2780/Cis, 72 h continuous exposure, read-out: IC50 value (95% confidence interval)
  IC50: 7.7 µM
A2780/Cis cells; IC50 A2780/Cis divided by IC50 A2780
  resistance factor: 4.1
A2780 cells
  IC50: 1.9 µM

## CCCCS(=N)(=O)CCC(NC(=O)[O][Pt]1([O]C(=O)NCCCCCN2C(=O)C=CC2=O)[O]C(=O)C(=O)[O]1)C(=O)O.NC1CCCCC1N (mixture of isomers) [BSO-OxMal, (OC-6-24)-((1 S)-3-(Butylsulfonimidoyl)-1-carboxypropyl)carbamato(1 R,2 R)-1,2-cyclohexanediamino(5-(2,5-dioxo-2,5-dihydro-1H-pyrrol-1-yl)pentyl)carbamatooxalatoplatinum(IV)]
CT26 allografts
  tumor doubling time extended: 1.8 fold
  maximal tumor growth inhibition: 61.2%
  tumor volumes as compared to solvent controls: significantly reduced tumor volumes
CT26 allografts; Kaplan Meier, Mantel-Cox test
  overall survival: significantly increased overall survival
albumin; t 0 h
  bound to albumin fraction: 76%
  free (low molecular weight fraction): 24%
albumin; t 1 h
  bound to albumin fraction: 100%
  free (low molecular weight fraction): 0%
albumin; t 4 h
  bound to albumin fraction: 100%
  free (low molecular weight fraction): 0%
albumin; t 24 h
  bound to albumin fraction: 97%
  free (low molecular weight fraction): 3%
[2]
  increased serum platinum levels in comparison to oxaliplatin: more than 20 fold
[3]
  DNA damage (pH2AX) in healthy organs: avoids renal DNA damage
[4]; depending on the regression model used
  serum half-life higher as compared to oxaliplatin: more than 10 fold
[4]; single equimolar dose, mice
  serum half-life (fast), two-phase decay model: 1.217 h
  serum half-life (slow), two-phase decay model: 22.28 h
  serum half-life, one-phase decay model: 3.968 h
  increase of AUC (total area) as compared to oxaliplatin: > 12 fold
CT26 tumor tissue; one week of therapy
  number of mitotic tumor cells as compared to solvent controls: significantly reduced
  GSH content in malignant tissue: significantly stronger effect
CT26 tumor tissue; non-necrotic parts of the tumor
  DNA damage (pH2AX) in tumor: distinctly enhanced DNA damage as compared to oxaliplatin
CT26 tumor tissue; non-necrotic tumor regions, one week of therapy
  Ki-67 antiproliferative effect: significantly stronger antiproliferative effect

## O=C1[O][Pt]2([NH][C@@H]3CCCC[C@H]3[NH]2)[O]C1=O [oxaliplatin, reference compound]
HaCat keratinocytes
  IC50: 3.4 µM
BEC endothelial cells
  IC50: 10.3 µM
HCT116 cells
  IC50: 0.58 µM
CT26 allografts
  tumor doubling time extended: 1.3 fold
  maximal tumor growth inhibition: 51.3%
  tumor volumes as compared to solvent controls: significantly reduced tumor volumes
[5]
  impact on cellular GSH content: did not alter the GSH content
[3]
  DNA damage (pH2AX) in healthy organs: induced pH2AX-positive cells in both lung and kidney samples
[4]; single equimolar dose, mice
  serum half-life (fast), two-phase decay model: 0.1528 h
  serum half-life (slow), two-phase decay model: 15.38 h
  serum half-life, one-phase decay model: 0.2624 h
CT26 tumor tissue; one week of therapy
  number of mitotic tumor cells as compared to solvent controls: significantly reduced
  GSH content in malignant tissue: distinctly reduced the content of GSH
[6]
  intracellular accumulation in HCT116/OxR as compared to parental HCT116: significantly reduced
Tolerability in mice
  maximum tolerated dose (MTD): 9 mg/kg
HCT116/OxR cells
  IC50: > 10 µM
